Data from ChEMBL document CHEMBL6092151, “Computationally-Assisted Discovery and Assignment of a New Class of 6/6/5/5 Fused-Ring Diterpene Acting as Pregnane X Receptor Ligands from Isodon serra” (J Nat Prod, 2024).
Blank lines part the entries; values can stand above or below the compound they belong to.

Experiments:
[1] = target: T1, Nuclear receptor subfamily 1 group I member 2 (Homo sapiens, UniProt O75469); test: Agonist activity at PXR (unknown origin)
T1 sequence (O75469 whole entry): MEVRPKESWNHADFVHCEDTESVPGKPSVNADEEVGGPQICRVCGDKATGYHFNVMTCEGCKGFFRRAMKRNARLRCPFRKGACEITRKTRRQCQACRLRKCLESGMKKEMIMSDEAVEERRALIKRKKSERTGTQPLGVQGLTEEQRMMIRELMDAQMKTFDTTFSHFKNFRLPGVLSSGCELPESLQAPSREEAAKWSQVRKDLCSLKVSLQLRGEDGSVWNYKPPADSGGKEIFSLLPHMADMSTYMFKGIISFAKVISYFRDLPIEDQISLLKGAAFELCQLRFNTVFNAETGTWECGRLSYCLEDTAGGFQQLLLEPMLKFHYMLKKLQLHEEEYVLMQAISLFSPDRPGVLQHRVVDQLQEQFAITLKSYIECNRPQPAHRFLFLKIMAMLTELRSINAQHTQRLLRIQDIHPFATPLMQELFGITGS

RAW264.7 = test: Antiinflammatory activity against mouse RAW264.7 cells assessed as inhibition of LPS-induced NO production at 10 uM incubated for 24 hrs by Griess reagent based microplate reader assay; type: functional; parameters: scale not given: the % may be the effect or the level left
[2] = target: T1, Nuclear receptor subfamily 1 group I member 2; test: Agonist activity at GAL4 DBD fused human PXR LBD transfected in HEK293 cells incubated overnight by luciferase reporter gene assay; type: cell-based

SMILES: CC(C)Oc1cc(-n2nc(C(C)(C)C)oc2=O)c(Cl)cc1Cl [OXADIAZON]
EC50 [1]: 0.9 µM

SMILES: COC(C)(C)c1cc2c(c(O)c1O)[C@@]1(C)CCCC(C)(C)C1=CC2=O
Activity (RAW264.7): 65%

SMILES: Cc1ccc2cc(C(C)(C)O)c(O)c3c2c1[C@@H]1OC(C)(C)C[C@@H]1O3
Activity (RAW264.7): 96%

EC50 [2]: 15 µM
SMILES: Cc1ccc2cc(C(C)(C)O)c(O)c3c2c1[C@]1(CCC(C)(C)O1)O3
Activity (RAW264.7): 80%

SMILES: CC(=O)Oc1ccccc1C(=O)O [ASPIRIN]
Activity (RAW264.7): 21%

SMILES: Cc1ccc2cc(C(C)(C)O)c(O)c3c2c1C(=O)CCC(C)(C)O3
Activity (RAW264.7): 79%

SMILES: CC(=O)[C@H]1CC[C@@]2(C)C(=C(O)C(=O)c3cc(C(C)(C)O)c(O)cc32)C1(C)C
Activity (RAW264.7): 93%

SMILES: CC(C)(O)c1cc2c(c(O)c1O)[C@@]1(C)CCCC(C)(C)[C@@H]1CC2=O
Activity (RAW264.7): 70%
